Data as given in patent US7605175B2, “Inhibitors of cyclin-dependent kinases, compositions and uses related thereto” (GPC Biotech AG, priority 2001, dated 2009).

How the values were obtained:
Cdc2/cyclin B = biological target: T1, Cdc2/cyclin B (Homo sapiens, UniProt P06493); test: Biochemical kinase assay Cdc2/cyclin B; details: Table 6
T1 construct: purchased
Summary of the method: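 Radiometric TCA-precipitation assay measuring [γ-32P]ATP incorporation into Histone H1 (20 μg); 50 μM ATP, 10% DMSO, Tris pH 7.5 with MgCl2 and DTT. Compounds at 1 nM to 10 μM; reaction 20 min at 30 °C, stopped with EDTA/ATP. Activity relative to DMSO control after subtracting 50 mM EDTA background.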

Cdk2/cyclin E = biological target: T2, Cdk2/cyclin E (Homo sapiens, UniProt P24941); test: Biochemical kinase assay Cdk2/cyclin E; details: Table 6
T2 construct: made in house; host or cells: Sf9 insect cells
Summary of the method: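 Sf9-expressed Cdk/cyclin heterodimers phosphorylate GST-Rb (residues 379–928, 40 μg) with 50 μM ATP plus [γ-33P]ATP, pH 7.5, 10% DMSO, 15 min at 30 °C. Compounds 1 nM–10 μM. 33P captured on glutathione-sepharose and scintillation-counted; activity relative to DMSO control after EDTA-background subtraction.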

[1] = biological target: protein kinase C (mixed isozymes); test: Protein kinase C TCA precipitation assay; format: biochemical, rat; details: Table 5; read-out: PKC IC50
Description: Enzymes: Cdc2/cyclin B was obtained from commercial sources. Cdk2/his-cyclin Eshort was expressed in Sf9 cells. Cdk2/cyclin A, cdk4/cyclin D1, and cdk6/cyclin D2 were expressed in Sf9 cells. Protein kinase A (catalytic subunit, from bovine heart) and protein kinase C (mixed isozymes from rat brain) were obtained from commercial sources.
Protein kinase C and protein kinase A were assayed using a TCA precipitation assay with Histone H1 as a substrate. For protein kinase A, the final assay contained 50 mM Tris, 10 mM MgCl2, 1 mM dithiothreitol, pH 7.5, 12 μM adenosine triphosphate, 10% (v/v) dimethylsulfoxide (from compounds), 20 μg Histone H1, 2 μCi [γ-^32P] adenosine triphosphate, 0.2 U protein kinase A in a 100 μL assay. A protein kinase C assay contained 50 mM Tris, 10 mM MgCl2, 1 mM dithiothreitol, 0.8 mM CaCl2, pH 7.5, 5 μM adenosine triphosphate, 10% (v/v) dimethylsulfoxide (from compounds), 20 μg Histone H1, 2 μCi [γ-^32P] adenosine triphosphate, 0.01 U protein kinase C in a 50 μL assay. The assays were started by the addition of enzyme, allowed to react for 10 min at 30° C., and stopped by adding 0.4 volumes of 237 mM disodium ethylenediamine tetraacetate, 105 mM adenosine triphosphate, pH 8.0. […] The filters were washed ten times with 25% (w/v) trichloroacetic acid, and the amount of incorporated [^32P]phosphate was determined by adding 100 μl Microscint and scintillation counting.

[2] = test system: adriamycin resistant cell line (ADR-res); test: NCI panel (SRB), adriamycin resistant cell line; format: cell-based; details: Homo sapiens
Text: The evaluation of compounds at the National Cancer Institute in their panel of 60 cell lines provides a wealth of information regarding efficacy in a wide range of tumor types and genetic backgrounds. Included within this panel are cell lines derived from leukemia, melanoma and cancers of the lung, colon, brain, ovary, breast, prostate and kidney. Use of this panel provides a measure of the efficacy of compounds in cells with alterations in many genes that are associated with neoplastic transformation including p53 and Her2/Neu as well as those involved in metabolism and those which confer multi-drug resistance. The data generated in these cell lines with the protocol described below can be used to evaluate the activity of compounds.
Cells were grown in RPMI-1640 10% FCS and plated in 96 well micro-titer plates at densities ranging from 5,000 to 40,000 cells/well. The plates were incubated for 24 hours at 37° C., 5% CO2 for 24 hours. […]
The effect of the compound on cellular viability was determined with the Sulforhodamine B (SRB) assay, which measures total protein. […] The bound stain was solubilized with 10 mM trizma base and the absorbance was read on a plate reader at […].

T1 sequence (P06493 whole entry, species assumed): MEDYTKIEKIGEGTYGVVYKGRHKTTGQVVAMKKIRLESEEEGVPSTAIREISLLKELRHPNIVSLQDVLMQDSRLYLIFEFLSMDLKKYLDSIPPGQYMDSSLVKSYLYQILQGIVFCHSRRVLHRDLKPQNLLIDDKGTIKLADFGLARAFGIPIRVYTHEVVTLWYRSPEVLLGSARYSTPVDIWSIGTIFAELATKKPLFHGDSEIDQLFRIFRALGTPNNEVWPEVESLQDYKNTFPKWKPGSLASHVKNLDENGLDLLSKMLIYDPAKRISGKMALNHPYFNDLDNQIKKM
T1 sequence (P14635 whole entry partner, species assumed): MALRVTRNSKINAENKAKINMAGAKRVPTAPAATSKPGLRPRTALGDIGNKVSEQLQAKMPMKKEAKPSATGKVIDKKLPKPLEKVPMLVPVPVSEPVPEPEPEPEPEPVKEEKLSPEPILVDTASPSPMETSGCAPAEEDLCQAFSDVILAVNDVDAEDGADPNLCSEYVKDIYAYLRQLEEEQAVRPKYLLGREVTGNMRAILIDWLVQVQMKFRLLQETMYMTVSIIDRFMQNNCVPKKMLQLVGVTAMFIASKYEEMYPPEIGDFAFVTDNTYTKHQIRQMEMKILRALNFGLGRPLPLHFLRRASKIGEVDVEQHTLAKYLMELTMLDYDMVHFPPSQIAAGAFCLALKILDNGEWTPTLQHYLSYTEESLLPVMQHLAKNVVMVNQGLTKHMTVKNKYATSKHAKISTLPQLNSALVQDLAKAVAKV

IC50 [1] [µM] | SMILES | IC50 (Cdc2/cyclin B) [µM] | IC50 (Cdk2/cyclin E) [µM] | IC50 [2] [µM]
– | COCCN1CCN(Cc2ccc(-c3[nH]nc4c3C(=O)c3c(NC(=O)NN5CCOCC5)cccc3-4)cc2)CC1.Cl.Cl [Compound B16, N-[3-(4-{[4-(2-methoxyethyl)piperazinyl]methyl}phenyl)-4-oxoindeno[2,3-d]pyrazol-5-yl](morpholin-4-ylamino)carboxamide dihydrochloride] | < 0.01 | < 0.01 | –
– | CC(C)N1CCN(C(=O)COc2ccc(-c3[nH]nc4c3C(=O)c3c(NC(=O)NN5CCOCC5)cccc3-4)cc2)CC1.Cl [Compound A37] | < 0.1 | < 0.1 | –
> 10 | CC(C)c1nn(-c2c(Cl)cccc2Cl)c2nc(Cc3ccc(O)c(CN4CCN(C(C)C)CC4)c3)[nH]c(=O)c12 [Compound C] | – | – | < 0.1
